Assay results reported in patent publication US5514662A, “Use of amphotericin B derivatives as protease inhibitors” (priority 1991, dated 1996).

What was measured:
leucocyte elastase = test: Activity of DABF-AmB on various proteases: leucocyte elastase; assay type: biochemical; conditions: 1 μM
Description: DABF-AmB was tested, at a concentration of 1 μM, on various proteases (papain, chymotrypsin, kallicrein, leucocyte elastase, cathopsin D and recombinant protease p10) under conditions and in the presence of substrates appropriate for each of the proteases tested.

viral antigen p24 = test: Expression of soluble viral antigen p24 in HIV-1 infected Jurkat and CEM cells; assay type: cell-based
Description: For the infection, fresh Jurkat or CEM type cells are centrifuged and the pellet is incubated for 2 hours at 37° C. with the viral preparation (10000 cpm of reverse transcriptase activity/10^6 cells, which corresponds to a multiplicity of infection of 0.04 to 0.1). The cells are then washed and resuspended (0.5×10^6/ ml) in fresh culture medium. Reverse transcriptase activity is determined at specific times after the infection, using the acellular infected cell supernatant.
The viral antigen p24 was quantified in the infected-cell supernatant by radioimmunological assay using the procedure recommended by the manufacturer (ABBOTT, Diagnostics Division).
The expression of the soluble viral antigen p24 was investigated at the same time as the reverse transcriptase activity, in the cell culture supernatants.
The AmB treatment is carried out under the same conditions as the DABF-AmB treatment.
In another experiment, 10 μM of DABF-AmB are added either during pretreatment 24 hours before the infection, or alternatively during the 2-hour inoculation stage, or alternatively during continuous treatment, as described above, for 12 days following the infection.

CD4 = test: Membrane expression of CD4 in HIV-1 infected Jurkat and CEM cells; assay type: cell-based, human; conditions: 10 μM continuous, 8th day
Description: Membrane expression of CD4 and gp120 is measured by means of the monoclonal antibodies OKT4 (0,5 μg/ml), 110-4 (2 μg/ml) respectively, which are stained using a […].
The fluorescence is measured by means of a FACSTAR cell counter (BECTON DICKINSON, MOUNTAIN VIEW, Calif.). The results are expressed as mean fluorescence intensity.
The CD4-specific monoclonal antibody (OKT4 was bought from ORTHO PHARMACEUTICAL CORPORATION (Raritan, N.J.).
(§1) Immunofluorescence analyses are carried out on the 8th day of the infection in order to verify whether the inhibition of HIV replication by DABF-AmB results in 10 a reduced membrane expression of viral antigens.

CD3 = test: Membrane antigen CD3 in HIV-1 infected cells; assay type: cell-based, human; conditions: treated or untreated infected cells
Description: as §1

HIV LAV/BRU = test: Protection of CD4 cells in cultures of HIV-infected human thymocytes; assay type: cell-based, HIV-1
Description: Human thymuses were obtained during corrective heart surgery operations on 3 to 7 year old children. The tissues were cut into fragments and the red blood cells were removed by treating with […] buffer. After washing in PBS buffer, cellular suspensions were prepared in an RPMI 1640 medium containing 10% of human serum type […]. Dead cells were removed by passing over a sterile nylon wool column.
The cells were infected with HIV LAV/BRU as indicated above in the general procedures, and then re-inoculated in the presence of PHA, of anti-CD2 or anti-CD3 antibodies and of IL2 and cultured for 10 days at a rate of 1×10^7 cells/ml. After 10 days, viral production was evaluated by measuring the RT activity in the supernatants and the distribution of CD4/CD8 was evaluated by double fluorescence flow cytometry by means of FITC-labelled anti-CD4 antibodies (OKT4) and phycoerythrin-labelled anti-CD8 antibodies (OKT8). DABF-AmB was added to the cultures immediately after infection and maintained during the entire duration of the culture.

SIVmac251 = test: Formation of syncytia in HUT78 cells infected with SIVmac251; assay type: cell-based, SIV
Description: HUT78 cells were inoculated in 96-well plates in an amount of 2×10^4 cells per well, in […]. They were infected with various viral concentrations and DABF-AmB was added immediately after the infection, at various concentrations. The formation of syncytia was evaluated after 3 and 5 days by direct reading under an inverted microscope (semi-quantitative test).

HRV14 = test: Cytopathogenic effect of HRV14 in HeLa-Ohio cells; assay type: cell-based
Description: HeLa-Ohio cells cultured until they have become confluent, are infected with a suspension of HRV14 virus. The cytopathogenic effect of the virus is evaluated by staining the cells with a 0.5% solution of crystal violet and 20% of methanol; after rinsing the plates with water, the optical density is read at 550 nm.
For the rest of the experiment, the cells are infected with a viral suspension with a titre such that 50% of the cells are killed after 3 days on control cells not receiving any treatment. 1 hour after the infection, the test product (AmB or DABF-AmB) is added at concentrations ranging from 0.03 to 100 μM. The percentage inhibition of the cytopathogenic effect is determined as follows:
OD (treated infected cells)-OD (infected cells)!
OD (healthy cells)-OD (infected cells)!
The effect of the addition of DABF-AmB was tested at various times: preincubation of the cells with DABF-AmB before the viral infection; addition of DABF-AmB at the time of the infection; addition of DABF-AmB after the infection, during the period of viral proliferation.

Question: C[C@@H]1[C@H](O)[C@@H](C)/C=C/C=C/C=C/C=C/C=C/C=C/C=C/[C@H](O[C@@H]2O[C@H](C)[C@@H](O)[C@H](NCC(=O)[C@@H](O)[C@@H]3OC(c4ccccc4)OC[C@H]3O)[C@@H]2O)C[C@@H]2O[C@](O)(C[C@@H](O)C[C@@H](O)[C@H](O)CC[C@@H](O)C[C@@H](O)CC(=O)O[C@H]1C)C[C@H](O)[C@H]2C(=O)O (stereo partly drawn) [DABF-AmB, 1-deoxy-1-amino-4,6-O-benzylidene-D-fructosyl-AmB] was tested. Which “inhibition of leucocyte elastase” value (leucocyte elastase) did it give?
Answer: inhibits

Question: And the “inhibition of p24 secretion” value (viral antigen p24; 10 μM added during the 2-hour inoculation stage)?
Answer: does not bring about any significant inhibition

Question: What about the “inhibition of p24 secretion” value (viral antigen p24; 10 μM added prior to infection (24 hours pretreatment)) of the same compound?
Answer: does not bring about any significant inhibition

Question: And the minimal effective concentration (viral antigen p24; Human immunodeficiency virus 1, 288 h, read-out: concentration for significant inhibition of p24)?
Answer: > 5 µM

Question: What about the “efficacy on the multiplication of HIV compared with AmB” value (viral antigen p24; p24, 10 μM, 4 and 8 days) of the same compound?
Answer: substantially greater than that of AmB

Question: And the “level of the membrane antigen CD4” value (CD4)?
Answer: increases until it reaches that for the uninfected cells

Question: What about the “level of the membrane antigen CD3” value (CD3) of the same compound?
Answer: unchanged

Question: And the “RT activity in the supernatants of infected thymocytes” value (HIV LAV/BRU; 10 days)?
Answer: decrease in RT activity

Question: And the “CD4+ cells in infected thymocyte cultures” value (HIV LAV/BRU; in proportion to the concentration)?
Answer: preservation or the reappearance of CD4+ cells

Question: And the “infection of CD4+ thymocytes and distribution of subpopulations of thymic cells” value (HIV LAV/BRU; infected cultures)?
Answer: inhibits the infection of CD4+ thermocytes by HIV and restores a normal distribution of the subpopulations of thymic cells

Question: What about the formation of syncytia (SIVmac251; 0.1 μM, 10 TCID50, 3 days) of the same compound?
Answer: -

Question: What about the formation of syncytia (SIVmac251; 0.1 μM, 10 TCID50, 5 days) of the same compound?
Answer: +

Question: What about the formation of syncytia (SIVmac251; 0.1 μM, 100 TCID50, 3 days) of the same compound?
Answer: +

Question: And the formation of syncytia (SIVmac251; 0.5 μM, 10 TCID50, 3 days)?
Answer: -

Question: And the formation of syncytia (SIVmac251; 0.5 μM, 10 TCID50, 5 days)?
Answer: +

Question: And the formation of syncytia (SIVmac251; 0.5 μM, 100 TCID50, 3 days)?
Answer: +

Question: What about the formation of syncytia (SIVmac251; 1 μM, 10 TCID50, 3 days) of the same compound?
Answer: -

Question: And the formation of syncytia (SIVmac251; 1 μM, 10 TCID50, 5 days)?
Answer: +

Question: What about the formation of syncytia (SIVmac251; 1 μM, 100 TCID50, 3 days) of the same compound?
Answer: +

Question: And the formation of syncytia (SIVmac251; 5 μM, 10 TCID50, 3 days)?
Answer: -

Question: What about the formation of syncytia (SIVmac251; 5 μM, 10 TCID50, 5 days) of the same compound?
Answer: - and +

Question: What about the formation of syncytia (SIVmac251; 5 μM, 100 TCID50, 3 days) of the same compound?
Answer: - and +

Question: And the formation of syncytia (SIVmac251; 5 μM, 100 TCID50, 5 days)?
Answer: - and +

Question: What about the formation of syncytia (SIVmac251; 5 μM, 500 TCID50, 3 days) of the same compound?
Answer: - and +

Question: What about the formation of syncytia (SIVmac251; 5 μM, 500 TCID50, 5 days) of the same compound?
Answer: + and -

Question: And the formation of syncytia (SIVmac251; 10 μM, 10 TCID50, 3 days)?
Answer: -

Question: And the formation of syncytia (SIVmac251; 10 μM, 10 TCID50, 5 days)?
Answer: -

Question: And the formation of syncytia (SIVmac251; 10 μM, 100 TCID50, 3 days)?
Answer: -

Question: And the formation of syncytia (SIVmac251; 10 μM, 100 TCID50, 5 days)?
Answer: - and +

Question: And the formation of syncytia (SIVmac251; 10 μM, 500 TCID50, 3 days)?
Answer: -

Question: What about the formation of syncytia (SIVmac251; 10 μM, 500 TCID50, 5 days) of the same compound?
Answer: - and +

Question: What about the formation of syncytia (SIVmac251; 50 μM, 10 TCID50, 3 days) of the same compound?
Answer: -

Question: What about the formation of syncytia (SIVmac251; 50 μM, 100 TCID50, 3 days) of the same compound?
Answer: -

Question: And the formation of syncytia (SIVmac251; 50 μM, 100 TCID50, 5 days)?
Answer: -

Question: What about the formation of syncytia (SIVmac251; 50 μM, 500 TCID50, 3 days) of the same compound?
Answer: -

Question: And the formation of syncytia (SIVmac251; 50 μM, 500 TCID50, 5 days)?
Answer: -

Question: What about the formation of syncytia (SIVmac251; 100 μM, 10 TCID50, 5 days) of the same compound?
Answer: -

Question: What about the formation of syncytia (SIVmac251; 100 μM, 100 TCID50, 3 days) of the same compound?
Answer: -

Question: What about the formation of syncytia (SIVmac251; 100 μM, 100 TCID50, 5 days) of the same compound?
Answer: -

Question: And the formation of syncytia (SIVmac251; 100 μM, 500 TCID50, 3 days)?
Answer: -

Question: What about the formation of syncytia (SIVmac251; 100 μM, 500 TCID50, 5 days) of the same compound?
Answer: -

Question: What about the “inhibition of formation of syncytia (in words)” value (SIVmac251; HUT78, SIV) of the same compound?
Answer: in a dose-dependent manner

Question: What about the “concentration from which cytopathogenic effects are completely inhibited” value (HRV14; added 1 hour after infection) of the same compound?
Answer: ≥ 10 µM

Question: And the IC50 (HRV14; added 1 hour after infection, read-out: IC50 (50% inhibition of the cytopathogenic effect))?
Answer: 5 µM

Question: And the “stage of action on HRV14 by time of addition” value (HRV14; addition before, at time of, or after infection)?
Answer: acts essentially during viral proliferation
